From US20200123127A1, “REMOVAL OF SENESCENCE-ASSOCIATED MACROPHAGES” (EVERON BIOSCIENCES, INC., priority 2016, published 2020)
Where two headings read alike, the source gives them in different places.

What was measured:
[1] = test system: p16(Ink4a) in mLF and mVAT fibroblasts; assay: Modulation of p16(Ink4a) in mouse lung and visceral adipose tissue-derived fibroblasts; assay type: cell-based; settings: for Modulation of p16(Ink4a): mLF and mVAT Senescent: 20Gy irradiation for senescence induction; for Modulation of p16(Ink4a): mLF and mVAT Proliferating: without irradiation
Description: We next sought to determine whether immunomodulatory agents, and other small molecules, were capable of selectively modulating p16(Ink4a) expression in SAMs by comparing their effects on p16 expression in SAMs to that of mouse lung fibroblasts (mLF) and mouse visceral adipose tissue-derived fibroblasts (mVAT). […] Immunomodulatory agents cause little to no change in p16 expression in fibroblasts. For example, mouse fibroblasts are reported to respond to LPS and IL-4 (expressing TLR4 and IL-4R, respectively), yet these agents are unable to modulate p16 in fibroblasts.

[2] = test system: p16(Ink4a) expression in macrophages; assay: Immunomodulators in vivo in p16Ink4a/Luc mice bearing alginate-encapsulated cells; set-up: species or system mouse; settings: for in vivo bioluminescence / elevated p16(Ink4a) expression: after 10 day induction of bioluminescence, Poly(I:C) 2 and 10 mg/kg intraperitoneally
Method: Mice were injected intraperitoneally with a 200 μl solution of 15 mg/mL D-luciferin potassium salt (Syd Labs; Boston, Mass.) in D-PBS without calcium and magnesium. At 10 minutes post-injection, isoflurane-anesthetized mice were placed into the IVIS Spectrum in vivo bioluminescent imaging system (PerkinElmer; Waltham, Mass.) for detection of luciferase activity (60-second exposure). Bioluminescence in p16^LUC mice was quantified as total flux (p/s) of luminescent signal from the abdomen using via Living Image® software.
We next investigated whether p16(Ink4a) expression was susceptible to M1-mediated regulation in vivo using immunotherapeutic agent Poly(I:C). Upon intraperitoneal injection of alginate-encapsulated cells, p16^Iak4a/Luc mice accumulate luciferase-positive macrophages that can be monitored in vivo via the IVIS imaging system. […] Further, treatment with Poly(I:C) had no effect on β-galactosidase activity nor viability (>95%) of lavage cells, consistent with in vitro data.

[3] = test system: adipose-derived mesenchymal stromal cells (AdMSC) from p16Ink4a/Luc mice; assay: Luciferase and β-galactosidase activities in senescent and proliferating adipose-derived mesenchymal stromal cells; assay type: cell-based, mouse
Description: FIG. 10. Elevated p16(Ink4a) and β-galactosidase is regulated by immunomodulatory agents in macrophages, but not in mesenchymal SCs. Primary cultures of adipose-derived mesenchymal stromal cells (AdMSC) isolated from p16^Ink4a/Luc mice were irradiated (20 Gy) and cultured for 10 days for senescence induction. Mock irradiated cells were used as a proliferating cell control. Response of senescent and proliferating AdMSCs to immunomodulatory agents were compared to that of peritoneal lavage cells elicited by our alginate bead model. A-D) Dose-response curves of LPS (top panels: […]) and Poly(I:C) (bottom panels: C&D) on p16(Ink4a) promoter-dependent luciferase activity (left panels: A&C) and beta-galactosidase activity measured via 4-MUG hydrolysis (right panels: B&D) after 72 hr treatment. No effect on viability was observed via CyQuant Direct assay (>80% viability). Results are shown as the mean±standard deviation for at least 3 experiments.
Primary cultures of adipose-derived mesenchymal stromal cells (mAdMSC) were established from the stromal vascular fraction of inguinal adipose tissues of young p16^LUC mice, as described. Isolated adherent cultures were maintained in DMEM/F12 medium supplemented with 15% FBS and 1× anti-biotic/anti-mycotic solution (Thermo Fisher Scientific) in a tri-gas tissue culture incubator at 37° C., 5% CO2 and 3% O2. Medium was change twice per week, and cell passaging performed when cells reached ˜80-90% confluency. For induction of senescence, passage 1 cells were irradiated in suspension at 20 Gy, and replated cultures were maintained at 21% 02.
We investigated whether the mechanisms regulating the expression of these traits in macrophages were similar to those found in SCs. Using cells isolated from p16^Ink4a/Luc mice, the dose-dependent response of luciferase and β-galactosidase activities to immunomodulatory stimuli in macrophages was compared to that of proliferating and irradiation-induced senescent adipose-derived mesenchymal stromal cells. […] LPS stimulation of alginate bead model-elicited macrophages reduced luciferase activity, with maximal inhibition (˜85%) observed at concentrations ≥1 ng/mL (FIG. 10A). In addition, β-galactosidase activity was reduced by 40% at 10 ng/mL (FIG. 10B).
In contrast, luciferase and β-galactosidase activities were unaltered in senescent and proliferating mesenchyme in response to LPS (up to 1 μg/mL) (FIGS. 10A&B).

[4] = test system: human neonatal dermal fibroblasts (NDF); assay: Resazurin viability assay, senescent vs proliferating/quiescent human neonatal dermal fibroblasts; assay type: cell-based; settings: for IC50: Homo sapiens, Fibroblast, 72 h, 72 hour exposure; for Selectivity (Prolif/Sen): NDF
Method: FIG. 2. Compound A1.1 selectively kills senescent human neonatal dermal fibroblasts (NDF) cells in a dose- and time-dependent manner. (FIG. 2A) Normal proliferating and quiescent NDF cells, and the cells made senescent via exposure to genotoxic agents (doxorubicin, bleomycin and gamma-irradiation) were incubated with increasing concentrations of A1.1. At 72 hours post-treatment cell viability was measured via resazurin viability assay. (FIG. 2B) Compound A1.1 selectively kills senescent NDF cells in time-dependent manner discriminating between acute genotoxic stress and senescence. Acutely damaged NDF cells were irradiated with 4 Gy gamma-irradiation 24 hours before A1.1 treatment. Senescent NDF cells were treated with bleomycin or irradiated with 15 Gy and incubated for 14 days to induce senescence before treatment with A1.1. Proliferating acutely damaged and senescent NDF cell were treated with 1.875-30 μM A1.1 and viable cells were measured at 72 hours after treatment. Average and standard deviation are shown.
Normal proliferating and quiescent NDF cells, and the cells made senescent via exposure to genotoxic agents (doxorubicin, bleomycin and gamma-irradiation) were incubated with increasing concentrations of A1.1. At 72 hours post-treatment cell viability was measured via resazurin viability assay.
A1.1 selectively kills senescent human neonatal dermal fibroblasts (NDF) cells in time-dependent manner discriminating between acute genotoxic stress and senescence ([…]). Acutely damaged NDF cells were irradiated with 4 Gy gamma-irradiation 24 hours before A1.1 treatment. Senescent NDF cells were treated with bleomycin or irradiated with 15 Gy and incubated for 14 days to induce senescence before treatment with A1.1.
Cytotoxicity of A1.1 analogs against bleomycin-induced senescent human NDFs and rat dermal fibroblasts (RDFs). Activity of analogs was assessed from dose-response curves against irradiation- or bleomycin-induced senescent and proliferating cells to calculate IC50s (uM). The fold difference of proliferating versus senescent cell IC50s was used to assess the level of specific anti-senescent activity of the compounds.
For generation senescent human neonatal dermal fibroblasts (NDFs) and adult rat dermal fibroblasts (RDFs), cells are treated at ˜10 ug/ml bleomycin for 3 days (for bleomycin-induced senescence) or irradiated once at 20 Gy using a gamma irradiator (Cs source), followed by at least 7 day recovery in fresh medium for induction of senescence. Senescent and non-senescent (proliferating) cells for each cell line are plated into 384-w plate, followed by 72 hour exposure to a dose titration of compounds. Viability measurements are estimated using the resazurin viability assay. Using GraphPad Prism 5, the IC50 values are calculated from the non-linear regression of log-transformed compound concentrations versus dose-response normalized to background and non-treated controls.

[5] = proliferating NDF, resazurin, read-out: IC50 NDFprolif
[6] = senescent NDF, bleomycin-induced, resazurin, read-out: IC50 NDFsen.bleo
[7] = light or radiation study, senescent NDF, irradiation-induced, resazurin, read-out: IC50 NDFsen.irr

## O=C(NCCCc1cn[nH]c1)c1ccc(-c2ccncc2)c(C#Cc2ccc(F)cc2)c1 [OT-82]
[1]
  Modulation of p16(Ink4a): mLF and mVAT Senescent: no change
  Modulation of p16(Ink4a): mLF and mVAT Proliferating: no change

## IFN-α
[2]
  in vivo bioluminescence / elevated p16(Ink4a) expression: abrogates
[3]
  p16(Ink4a) response of senescent vs proliferating mesenchymal cells: lacking a differential response

## IL-4: M2-polarizing cytokine
[3]
  p16(Ink4a) response of senescent vs proliferating mesenchymal cells: lacking a differential response
[1]
  Modulation of p16(Ink4a): mLF and mVAT Senescent: no change
  Modulation of p16(Ink4a): mLF and mVAT Proliferating: no change

## COc1ccc(C2CC(=NO)c3c(SCc4ccccc4)sc(C(=O)NCc4cccc(F)c4)c3C2)cc1 (centres unmarked) [Example A1.6, 3-(Benzylthio)-N-(3-fluorobenzyl)-4-(hydroxyimino)-6-(4-methoxyphenyl)-4,5,6,7-tetrahydrobenzo[c]thiophene-1-carboxamide]
[4]; [5]
  IC50: > 20 µM
[4]; [6]
  IC50: < 5 µM
[4]; [7]
  IC50: < 5 µM
[1]
  Modulation of p16(Ink4a): mLF and mVAT Senescent: no change
  Modulation of p16(Ink4a): mLF and mVAT Proliferating: no change

## Poly(I:C)
[2]
  in vivo bioluminescence / elevated p16(Ink4a) expression: complete abrogation of signal
[2]; mouse, in vivo
  viability of lavage cells: > 95%
  β-galactosidase activity of lavage cells: no effect
[2]; peritoneal lavage
  proportion of CD11b+ F4/80+ macrophages: no difference
[2]; peritoneal lavage cells
  decrease in luciferase activity per lavage cell vs non-treated controls: > 6 fold
[1]
  Modulation of p16(Ink4a): mLF and mVAT Senescent: no change
  Modulation of p16(Ink4a): mLF and mVAT Proliferating: no change

## CCOC(=O)c1sc(SCc2ccccc2)c2c1CC(c1ccc(OC)cc1)C/C2=N\O (centres unmarked) [Example A1.1]
[4]; [5]
  IC50: > 20 µM
[4]; [6]
  IC50: < 5 µM
[4]; [7]
  IC50: < 10 µM
[4]; Bleomycin
  Selectivity (Prolif/Sen): 5.3
[4]; Irradiation
  Selectivity (Prolif/Sen): 2.9
[4]; concentrations up to 10 μM, 72 hours, resazurin
  effect on viability of proliferating or quiescent NDF cells: no significant effect

## IL-13: M2-polarizing cytokine
[3]
  p16(Ink4a) response of senescent vs proliferating mesenchymal cells: lacking a differential response
[1]
  Modulation of p16(Ink4a): mLF and mVAT Senescent: no change
  Modulation of p16(Ink4a): mLF and mVAT Proliferating: no change

B1: IFN-γ: type II interferon, M1-inducing agent (protein, UniProt P01579 24-161, looked up)
Interferon gamma: QDPYVKEAENLKKYFNAGHSDVADNGTLFLGILKNWKEESDRKIMQSQIVSFYFKLFKNFKDDQSIQKSVETIKEDMNVKFFNSNKKKRDDFEKLTNYSVTDLNVQRKAIHELIQVMAELSPAAKTGKRKRSQMLFRG
[3]
  p16(Ink4a) response of senescent vs proliferating mesenchymal cells: lacking a differential response
